The values below come from PubChem BioAssay (NCI).

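96-well plates; 48 h exposure; 5 concentrations. Endpoints by linear interpolation between flanking doses. Not reached: highest tested concentration assigned. TGI denotes the concentration required for complete inhibition of growth.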 Where a SMILES comes first, the peptide text is derived from it. The star is where a group is joined. Boc = CC(C)(C)OC(=O)*

For the first assay, the system named is SK-MEL-2 melanoma. Nature of the assay: DTP human tumour cell line panel, 48 h.
Molecule `Cc1ccc(/C=C/C(=O)C(C)(C)CN2CCCCC2)cc1` yielded a TGI of 23.4 µM. This lies in the double-digit micromolar range.
In the case of `CC(=O)CN(Cc1cc(C)c2c(c1)c1ccccc1n2Cc1ccccc1)S(=O)(=O)c1ccc(C)cc1`, the total growth inhibition concentration (TGI) is above 100 µM.
Same read-out and setting: next, `O=C1OC(Cc2ccccc2)(N2CCCC2=O)C1c1ccccc1` (stereo unspecified): above 100 µM; `CC1(C)OC(=O)C(C#N)=C1/C=C/c1coc2ccc(Cl)cc2c1=O`: 50.9 µM.

A further assay deals with SK-MEL-28 melanoma. Put plainly: DTP human tumour cell line panel, 48 h.
The molecule `COc1ccc2c(c1)C(=O)C1CC(=O)CCC21` (stereo unspecified) had a TGI above 100 µM.
`COc1cccc(NC(=O)CSc2nnc(-c3ccc(NC(C)=O)cc3)o2)c1` yielded a concentration for total growth inhibition (TGI) above 100 µM.
On the same count and under the same terms, under `Clc1ccc(Nc2nc3ccccc3nc2-c2cccs2)cc1Cl` stands above 100 µM; under `CCn1c2ccccc2c2ccc3c(c21)C(=O)C=CC3=O`, 33.3 µM.
Molecule `O=c1nc(NC2CCCCO2)ccn1CCO` (stereo unspecified) yielded a total growth inhibition concentration (TGI) above 100 µM.
For `COC(=O)c1onc(-c2c(OC)cc(OC)cc2OC)c1C(=O)OC`, the total growth inhibition concentration (TGI) is above 100 µM.
On the same count and under the same terms, under `CCCP1(=O)C=C(C)C(=C(Cl)Cl)C(C)=C1` (stereo unspecified) stands above 100 µM; under `CCCCCCCOc1ccc(/C=C\c2cc[n+](CCCCCCCC[n+]3ccc(/C=C\c4ccc(OCCCCCCC)cc4)cc3)cc2)cc1`, 32.2 µM.
Regarding `CC(C)(C)OC(=O)NC(Cc1ccc(O)cc1)C(=O)N1CCCC1C(=O)O` (stereo not drawn) (Boc-Tyr-Pro-OH; configuration not given here), the TGI is above 100 µM.
Still for that read-out and setting: next, `O=C(O)c1ccc(C2COc3ccc(Cl)cc3C2)cc1` (stereo unspecified): above 100 µM; `CC(=O)NC(CCCNC(=O)N(CCCl)N=O)C(=O)NCc1ccccc1` (stereo unspecified): above 100 µM; `c1ccc2c(c1)C1CCCCCC21N1CCOCC1` (stereo unspecified): above 100 µM.
`COc1cccc(OC)c1C(=O)OCc1ccccc1` returned a TGI above 100 µM.
The same measure, in the same setting: under `O=C(CSc1nnc(Cc2ccccc2)o1)Nc1ccccc1` stands above 100 µM; under `Cc1ccc(/C=C/C(=O)C(C)(C)CN2CCCCC2)cc1`, 33.4 µM; under `CC(=O)CN(Cc1cc(C)c2c(c1)c1ccccc1n2Cc1ccccc1)S(=O)(=O)c1ccc(C)cc1`, above 100 µM.
Still for that read-out and setting: next, `O=C1OC(Cc2ccccc2)(N2CCCC2=O)C1c1ccccc1` (stereo unspecified): above 100 µM.
Same read-out and setting: next, `CC1(C)OC(=O)C(C#N)=C1/C=C/c1coc2ccc(Cl)cc2c1=O`: above 100 µM.

Another assay has as its system SNB-19 CNS. Put plainly: DTP human tumour cell line panel, 48 h.
Molecule `COc1ccc2c(c1)C(=O)C1CC(=O)CCC21` (stereo unspecified) returned a total growth inhibition concentration (TGI) above 100 µM.
On the same count and under the same terms, under `Clc1ccc(Nc2nc3ccccc3nc2-c2cccs2)cc1Cl` stands above 100 µM; under `COC(=O)c1onc(-c2c(OC)cc(OC)cc2OC)c1C(=O)OC`, above 100 µM; under `CCCCCCCOc1ccc(/C=C\c2cc[n+](CCCCCCCC[n+]3ccc(/C=C\c4ccc(OCCCCCCC)cc4)cc3)cc2)cc1`, above 100 µM.
For `CC(C)(C)OC(=O)NC(Cc1ccc(O)cc1)C(=O)N1CCCC1C(=O)O` (stereo not drawn) (Boc-Tyr-Pro-OH; configuration not given here), the TGI was above 100 µM.
The same measure, in the same setting: under `O=C(O)c1ccc(C2COc3ccc(Cl)cc3C2)cc1` (stereo unspecified) stands above 100 µM.
Still for that read-out and setting: under `CC(=O)NC(CCCNC(=O)N(CCCl)N=O)C(=O)NCc1ccccc1` (stereo unspecified) stands above 100 µM.
Still for that read-out and setting: under `c1ccc2c(c1)C1CCCCCC21N1CCOCC1` (stereo unspecified) stands above 100 µM; under `Cc1ccc(/C=C/C(=O)C(C)(C)CN2CCCCC2)cc1`, 8.73 µM; under `CC(=O)CN(Cc1cc(C)c2c(c1)c1ccccc1n2Cc1ccccc1)S(=O)(=O)c1ccc(C)cc1`, above 100 µM.
Molecule `O=C1OC(Cc2ccccc2)(N2CCCC2=O)C1c1ccccc1` (stereo unspecified) came in with a concentration for total growth inhibition (TGI) above 100 µM.
Regarding `CC1(C)OC(=O)C(C#N)=C1/C=C/c1coc2ccc(Cl)cc2c1=O`, the TGI was above 100 µM.

The subject of the next assay is TK-10 renal. Put plainly: DTP human tumour cell line panel, 48 h.
`COc1ccc2c(c1)C(=O)C1CC(=O)CCC21` (stereo unspecified): the concentration for total growth inhibition (TGI) was above 100 µM.
Molecule `COc1cccc(NC(=O)CSc2nnc(-c3ccc(NC(C)=O)cc3)o2)c1` displayed a TGI above 100 µM.
Regarding `Clc1ccc(Nc2nc3ccccc3nc2-c2cccs2)cc1Cl`, the concentration for total growth inhibition (TGI) was above 100 µM.
Still for that read-out and setting: under `CCn1c2ccccc2c2ccc3c(c21)C(=O)C=CC3=O` stands 30 µM; under `O=c1nc(NC2CCCCO2)ccn1CCO` (stereo unspecified), above 100 µM.
Molecule `COC(=O)c1onc(-c2c(OC)cc(OC)cc2OC)c1C(=O)OC` gave a concentration for total growth inhibition (TGI) above 100 µM.
On the same count and under the same terms, next, `CCCP1(=O)C=C(C)C(=C(Cl)Cl)C(C)=C1` (stereo unspecified): above 100 µM; `CCCCCCCOc1ccc(/C=C\c2cc[n+](CCCCCCCC[n+]3ccc(/C=C\c4ccc(OCCCCCCC)cc4)cc3)cc2)cc1`: 43.7 µM.
Still for that read-out and setting: under `CC(C)(C)OC(=O)NC(Cc1ccc(O)cc1)C(=O)N1CCCC1C(=O)O` (stereo not drawn) (Boc-Tyr-Pro-OH; configuration not given here) stands above 100 µM; under `O=C(O)c1ccc(C2COc3ccc(Cl)cc3C2)cc1` (stereo unspecified), above 100 µM; under `CC(=O)NC(CCCNC(=O)N(CCCl)N=O)C(=O)NCc1ccccc1` (stereo unspecified), above 100 µM.
`c1ccc2c(c1)C1CCCCCC21N1CCOCC1` (stereo unspecified): the concentration for total growth inhibition (TGI) is above 100 µM.
Still for that read-out and setting: next, `COc1cccc(OC)c1C(=O)OCc1ccccc1`: above 100 µM.
On to `O=C(CSc1nnc(Cc2ccccc2)o1)Nc1ccccc1`, for which the TGI was above 100 µM.
With `Cc1ccc(/C=C/C(=O)C(C)(C)CN2CCCCC2)cc1`, the TGI is 24.1 µM.
The molecule `CC(=O)CN(Cc1cc(C)c2c(c1)c1ccccc1n2Cc1ccccc1)S(=O)(=O)c1ccc(C)cc1` registered a total growth inhibition concentration (TGI) above 100 µM.
Same read-out and setting: next, `O=C1OC(Cc2ccccc2)(N2CCCC2=O)C1c1ccccc1` (stereo unspecified): above 100 µM.

A word on the TGI: it is the concentration at which net growth stops.
